Data: the supplement of paper PMC10307832

Tests used:
Ponatinib + Trametinib = compound: Cc1ccc(C(=O)Nc2ccc(CN3CCN(C)CC3)c(C(F)(F)F)c2)cc1C#Cc1cnc2cccnn12 [Ponatinib] + CC(=O)Nc1cccc(-n2c(=O)n(C3CC3)c(=O)c3c(Nc4ccc(I)cc4F)n(C)c(=O)c(C)c32)c1 [Trametinib] (partner 0.02 µM); assay: relative viability (nuclei count vs DMSO), 5 days (fraction); higher = more cells survive
How it was run: (§1)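 Lung cancer cell lines in 1536-well plates got either a single drug or a fixed anchor-drug dose together with five library-drug doses (not always all listed) in √10 steps, by pin tool, on the day after seeding. Nuclei were counted after 5 days, and relative viability is the treated-to-vehicle ratio of nuclei counts. Values are medians of duplicate plates.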

Pazopanib + Dasatinib = compound: Cc1ccc(Nc2nccc(N(C)c3ccc4c(C)n(C)nc4c3)n2)cc1S(N)(=O)=O [Pazopanib] + Cc1nc(Nc2ncc(C(=O)Nc3c(C)cccc3Cl)s2)cc(N2CCN(CCO)CC2)n1 [Dasatinib] (partner 0.075 µM); assay: as above
How it was run: as §1

Row | Cell Line | relative viability (Ponatinib + Trametinib; first compound 0.002 µM) | relative viability (Ponatinib + Trametinib; first compound 0.006325 µM) | relative viability (Ponatinib + Trametinib; first compound 0.06325 µM) | relative viability (Ponatinib + Trametinib; first compound 0.2 µM) | relative viability (Pazopanib + Dasatinib; first compound 0.01 µM) | relative viability (Pazopanib + Dasatinib; first compound 0.03162 µM) | relative viability (Pazopanib + Dasatinib; first compound 0.1 µM) | relative viability (Pazopanib + Dasatinib; first compound 0.3162 µM) | relative viability (Pazopanib + Dasatinib; first compound 1 µM)
1 | NCI-H23 | 0.376 | 0.415 | 0.364 | 0.348 | 0.722 | 0.852 | 0.94 | 0.869 | 0.894
2 | HCC-366 | 0.32 | 0.417 | 0.428 | 0.273 | 0.421 | 0.655 | 0.762 | 0.676 | 0.733
3 | EMC-BAC-2 | 0.875 | 0.897 | 0.91 | 0.718 |  | 0.381 | 0.308 | 0.305 | 0.312
4 | NCI-H3122 | 0.256 | 0.199 | 0.241 | 0.209 | 0.815 | 0.895 | 0.756 | 0.785 | 0.5
5 | SK-MES-1 | 0.629 | 0.693 | 0.511 | 0.454 | 0.361 | 0.34 | 0.414 | 0.474 | 0.383
6 | NCI-H2170 | 0.865 | 0.962 | 0.899 | 0.867 | 0.536 | 0.572 | 0.537 | 0.511 | 0.639
7 | NCI-H1648 | 0.478 | 0.361 | 0.432 | 0.346 |  |  |  |  | 
8 | EPLC-272H | 0.271 | 0.309 | 0.345 | 0.22 |  | 0.321 | 0.369 | 0.376 | 0.251
9 | NCI-H1915 | 0.303 | 0.321 | 0.288 | 0.24 | 0.253 | 0.319 | 0.321 | 0.318 | 0.402
10 | NCI-H647 | 0.399 | 0.5 | 0.458 | 0.296 | 0.135 | 0.21 | 0.224 | 0.243 | 0.25
11 | NCI-H441 | 0.389 | 0.435 | 0.485 | 0.382 | 0.451 | 0.612 | 0.643 | 0.565 | 0.658
12 | NCI-H2228 | 0.546 | 0.656 | 0.495 | 0.547 | 0.589 | 0.561 | 0.383 | 0.481 | 0.457
13 | NCI-H2342 | 0.741 | 0.802 | 0.936 | 0.83 | 0.303 | 0.339 | 0.305 | 0.297 | 0.278
14 | NCI-H650 | 0.929 | 0.962 | 0.949 | 0.83 | 0.398 | 0.511 | 0.449 | 0.427 | 0.482
15 | NCI-H1395 | 0.905 | 1.01 | 0.976 | 0.78 | 0.398 | 0.487 | 0.362 | 0.452 | 0.432
16 | NCI-H358 | 0.162 | 0.147 | 0.12 | 0.103 | 0.157 | 0.152 | 0.158 |  | 0.258
17 | NCI-H2085 | 0.482 | 0.557 | 0.675 | 0.568 | 0.219 | 0.255 | 0.225 | 0.241 | 0.265
18 | NCI-H838 | 0.461 | 0.554 | 0.529 | 0.424 | 0.273 | 0.278 | 0.297 | 0.278 | 0.334

Row | Cell Line | relative viability (Ponatinib + Trametinib; first compound 0.002 µM) | relative viability (Ponatinib + Trametinib; first compound 0.006325 µM) | relative viability (Ponatinib + Trametinib; first compound 0.06325 µM) | relative viability (Ponatinib + Trametinib; first compound 0.2 µM) | relative viability (Pazopanib + Dasatinib; first compound 0.01 µM) | relative viability (Pazopanib + Dasatinib; first compound 0.03162 µM) | relative viability (Pazopanib + Dasatinib; first compound 0.1 µM) | relative viability (Pazopanib + Dasatinib; first compound 0.3162 µM) | relative viability (Pazopanib + Dasatinib; first compound 1 µM)
19 | NCI-H460 | 0.192 | 0.128 | 0.268 | 0.1 | 0.274 | 0.472 | 0.566 | 0.603 | 0.758
20 | LOU-NH91 | 0.803 | 0.807 | 0.886 | 0.764 | 0.49 | 0.523 | 0.559 | 0.603 | 0.565
21 | NCI-H322M | 0.516 | 0.555 | 0.553 | 0.531 | 0.265 | 0.258 | 0.257 | 0.275 | 0.277
22 | NCI-H520 | 0.597 | 0.623 | 0.435 | 0.285 | 0.142 | 0.183 | 0.213 | 0.145 | 0.25
23 | NCI-H661 | 0.544 | 0.556 | 0.524 | 0.453 | 0.908 | 0.894 | 0.815 | 0.931 | 1.15
24 | NCI-H727 | 0.415 | 0.388 | 0.398 | 0.37 | 0.402 | 0.378 | 0.394 | 0.444 | 0.413
25 | NCI-H1944 | 0.426 | 0.465 | 0.49 | 0.409 |  | 0.226 | 0.226 | 0.237 | 0.247
26 | NCI-H1734 | 0.63 | 0.658 | 0.527 | 0.505 | 0.387 | 0.471 | 0.458 | 0.459 | 0.478
27 | LXF-289 | 0.651 | 0.649 | 0.633 | 0.641 | 0.224 | 0.236 | 0.19 | 0.156 | 0.242
28 | H3255 | 0.62 | 0.655 | 0.607 | 0.554 | 0.349 | 0.397 | 0.295 | 0.286 | 0.454
29 | 201T | 0.705 | 0.733 | 0.762 | 0.693 | 0.526 | 0.424 | 0.568 | 0.545 | 0.666
30 | NCI-H2126 | 0.564 | 0.576 | 0.691 | 0.578 | 0.528 | 0.528 | 0.607 | 0.594 | 0.615
31 | HOP-62 | 0.417 | 0.403 | 0.374 | 0.338 | 0.554 | 0.713 | 0.681 | 0.659 | 0.718
32 | CAL-12T | 0.315 | 0.311 | 0.332 | 0.239 | 0.308 | 0.412 | 0.312 | 0.458 | 0.462
33 | NCI-H596 | 0.783 | 0.812 | 0.825 | 0.642 |  | 0.617 | 0.454 | 0.6 | 0.575
34 | NCI-H1755 | 0.755 | 0.841 | 0.761 | 0.763 | 0.333 | 0.398 | 0.433 | 0.384 | 0.411
35 | NCI-H2023 | 0.555 | 0.625 | 0.64 | 0.523 | 0.528 | 0.566 | 0.473 | 0.535 | 0.577
36 | NCI-H2009 | 0.284 | 0.253 | 0.189 | 0.165 | 0.279 | 0.324 | 0.298 | 0.335 | 0.226
